Read-outs that look alike come from different tables or passages of the source.
Assays:
[1] = system: LAPC4 prostate cancer cell line; test: Cell survival of LAPC4 cells grown with MDV3100, R1881, Dex, Mif, GSK650394; type: cell-based, human
From the text: (§1) GR Antagonist Studies. […]. SGK1-FLAG or vector was stably expressed and cellular viability, secreted PSA, and protein lysates were collected.

[2] = system: CWR-22RV1 (22RV1) prostate cancer cell line; test: Cell survival of CWR-22RV1 cells grown with MDV3100, R1881, Dex, GSK650394; type: cell-based, human
From the text: as §1

[3] = system: LAPC4 cell line; test: GR expression following MDV3100 treatment, LAPC4; type: cell-based, human
[4] = system: CWR-22RV1 cell line; test: GR expression following MDV3100 treatment, CWR-22RV1; type: cell-based, human
[5] = system: SGK1; test: Expression of SGK1 in prostate cancer cell lines; type: cell-based, human; details: MDV3100, and addition of Dex
From the text: as §1

[6] = system: CRPC cell lines; test: GR expression level in CRPC cell lines; type: cell-based, human; details: addition of MDV3100, within 3-7 days
[7] = system: LNCaP cells engineered to express elevated levels of AR; details: cited from earlier work
[8] = system: breast cancer cell; details: cited from earlier work
[9] = system: metastatic castration-resistant prostate cancer patients; details: cited from earlier work
[10] = system: prostate specific antigen serum levels; details: after a month of taking the medicine; cited from earlier work
[11] = system: castration-resistant prostate cancer patients who have received prior docetaxel; details: cited from earlier work
[12] = system: CRPC cell lines; test: Proliferation / growth of castrate-resistant prostate cancer cell lines; type: cell-based, human
From the text: as §1

[13] = at 9 months; cited from earlier work
[14] = system: advanced prostate cancer; details: cited from earlier work
[15] = cited from earlier work

SMILES: CNC(=O)c1ccc(N2C(=S)N(c3ccc(C#N)c(C(F)(F)F)c3)C(=O)C2(C)C)cc1F [MDV3100]
- reduction in cell death compared to R1881+Dex control ([1]; LAPC4): 26%
- cell survival compared to R1881 control ([1]; LAPC4, MDV3100 with vs without Dex): 47%
- survival under MDV3100 treatment ([1]; SGK1-Flag over-expressing LAPC4 cells): 61%
- survival under MDV3100 treatment ([1]; vector control LAPC4 cells): 24%
- cell survival ([2]; MDV3100 with vs without Dex): 51%
- GR expression [3]: increased
- GR expression [4]: increased
- Expression of SGK1 [5]: reduced
- GR expression level [6]: significantly increases
- expression of androgen dependent genes PSA and TMPRSS2 [7]: down regulated
- breast cancer cell growth [8]: inhibits breast cancer cell growth
- Median time to radiographic progression ([9]; chemo-naive patients): 56 weeks
- patients with PSA level decreased more than 50 percent ([9]; chemo-naive patients): 40/65
- patients with PSA level decreased more than 50 percent ([9]; chemotherapy-treated patients): 38/75
- Median time to radiographic progression ([9]; post-chemotherapy population): 25 weeks
- decrease in prostate specific antigen serum levels [10]: ≤ 89%
- lived longer than those taking placebo ([11]; AFFIRM interim analysis): approximately 5 months
- median survival after progression on MDV3100 ([11]; in vivo): under 1 year
- survival advantage ([11]; phase III, reported in 2012): 4-5 month

SMILES: CC#C[C@]1(O)CC[C@H]2[C@@H]3CCC4=CC(=O)CCC4=C3[C@@H](c3ccc(N(C)C)cc3)C[C@@]21C [Mif, mifepristone]
- change in survival compared to R1881+Dex control ([1]; LAPC4, addition of Mif alone): no change in survival
- proliferation with addition of a GR inhibitor to MDV3100 under GR activation [12]: restoring the decrease in proliferation

SMILES: CC(C)C[C@H](NC(=O)[C@@H](Cc1c[nH]c2ccccc12)NC(=O)[C@H](Cc1ccc(O)cc1)NC(=O)[C@H](CO)NC(=O)[C@H](Cc1c[nH]c2ccccc12)NC(=O)[C@H](Cc1c[nH]cn1)NC(=O)[C@@H]1CCC(=O)N1)C(=O)N[C@@H](CCCNC(=N)N)C(=O)N1CCC[C@H]1C(=O)NCC(N)=O [triptorelin]
- Overall survival [13]: 97%

SMILES: CCNC(=O)[C@@H]1CCCN1C(=O)[C@H](CCCNC(=N)N)NC(=O)[C@H](CC(C)C)NC(=O)[C@@H](CC(C)C)NC(=O)[C@H](Cc1ccc(O)cc1)NC(=O)[C@H](CO)NC(=O)[C@H](Cc1c[nH]c2ccccc12)NC(=O)[C@H](Cc1c[nH]cn1)NC(=O)[C@@H]1CCC(=O)N1 [leuprolide]
- Overall survival [13]: 90.5%
- cardiovascular toxicity ([14]; human, in vivo): lower incidence of cardiovascular toxicity
- reducing serum testosterone to castrate levels ([14]; monthly depot): equivalent to 3 mg of DES

SMILES: O=C(O)c1ccc(-c2c[nH]c3ncc(-c4ccccc4)cc23)cc1C1CCCC1 [GSK650394]
- % survival relative to R1881+Dex control ([1]; LAPC4, GSK650394 added to MDV3100+Dex): 19%
- cell survival following treatment with the SGK1 inhibitor ([2]; results similar to LAPC4): impaired

SMILES: CC(C)C(=O)Nc1ccc([N+](=O)[O-])c(C(F)(F)F)c1 [flutamide]
- hepatic impairment ([15]; doses of 125 mg/day or less): No cases of hepatic impairment
- hepatotoxicity ([15]; warnings from patients using 750 mg daily): fatal hepatotoxicity has been reported
